Measurements taken from patent publication US20080280883A1, “Muscarinic Receptor Antagonists” (priority 2004, published 2008).

System: bladder pressure and salivation
Assay: In vivo experiments using anesthetized rabbit (carbachol challenge)
Conditions: carbachol 1.5 ug/kg intra-arterial, from ID50 values, expressed as fold of selectivity of oxybutynin

## CN1CCC(N(C)CC(O)C(O)(c2ccccc2)C2CCCC2)CC1 (centres unmarked) [Compound No. 24, 1-Cyclopentyl-3-[methyl-(1-methyl-piperidin-4-yl)-amino]-1-phenyl-propane-1,2-diol]
  Selectivity for bladder pressure inhibition vs. salivation: about 2

## CC1=NCCN1CC(=O)[C@](O)(c1ccccc1)C1CCCC1 [Compound No. 85, (2R)-1-Cyclopentyl-1-hydroxy-3-(2-methyl-4,5-dihydro-imidazol-1-yl)-1-phenyl-propan-2-one]
  Selectivity for bladder pressure inhibition vs. salivation: about 2
